From the NIST ThermoML archive (doi:10.1021/je700096m)

Test: xn = mol fraction of the nth substance listed
Conditions: 298.15 K, Liquid

CCCCCCCCCl [1-chlorooctane] + CC(=O)N(C)C
mass density [kg/m3]
Conditions	x2 = 0.0963	x2 = 0.2006	x2 = 0.2938	x2 = 0.4059	x2 = 0.5022	x2 = 0.602	x2 = 0.7005	x2 = 0.8075	x2 = 0.901
100 kPa	872	875.8	879.6	884.87	890.2	896.7	904.1	913.7	923.6
2000 kPa	873.5	877.2	881.1	886.2	891.5	898.1	905.4	914.9	924.8
4000 kPa	875	878.7	882.5	887.6	892.9	899.4	906.8	916.3	926.1
6000 kPa	876.5	880.2	884	889	894.3	900.8	908.1	917.5	927.3
8000 kPa	877.9	881.6	885.5	890.4	895.8	902.2	909.4	918.8	928.5
10000 kPa	879.5	883.1	887	892	897.3	903.6	910.8	920	929.8
12000 kPa	880.9	884.5	888.3	893.3	898.5	904.9	912.1	921.3	931
14000 kPa	882.3	885.9	889.7	894.6	899.9	906.1	913.4	922.4	932.2
15900 kPa	–	–	–	–	–	907.4	–	–	–
16000 kPa	883.7	887.3	891.1	896	901.1	–	914.6	923.7	933.3
18000 kPa	885	888.6	892.4	897.3	902.4	908.7	915.8	924.9	934.4
20000 kPa	886.5	890.1	893.9	898.5	903.8	910	917.1	926.1	935.7
